Data taken from PubChem BioAssay (NCI).
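At the GI50, growth is halved. The concentration for full growth arrest is given as TGI.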

What was measured:
Assay in all cases: growth of human tumour cells (NCI), 384-well format
K-562 leukemia = system: K-562 leukemia
786-0 renal = system: 786-0 renal
RXF 393 renal = system: RXF 393 renal
UACC-62 melanoma = system: UACC-62 melanoma
NCI-H226 lung = system: NCI-H226 lung
NCI-H522 lung = system: NCI-H522 lung
LOX IMVI melanoma = system: LOX IMVI melanoma
SK-MEL-5 melanoma = system: SK-MEL-5 melanoma
UO-31 renal = system: UO-31 renal
SNB-19 CNS = system: SNB-19 CNS
HT29 colon = system: HT29 colon
SN12C renal = system: SN12C renal
MCF7 breast = system: MCF7 breast
DU-145 prostate = system: DU-145 prostate
HCT-15 colon = system: HCT-15 colon
MOLT-4 leukemia = system: MOLT-4 leukemia
SK-OV-3 ovarian = system: SK-OV-3 ovarian
KM12 colon = system: KM12 colon
SK-MEL-28 melanoma = system: SK-MEL-28 melanoma
SF-295 CNS = system: SF-295 CNS
CAKI-1 renal = system: CAKI-1 renal
HCT-116 colon = system: HCT-116 colon
MDA-MB-231 breast = system: MDA-MB-231 breast
SF-539 CNS = system: SF-539 CNS
A549 NSCLC = system: A549 NSCLC
A498 renal = system: A498 renal
T-47D breast = system: T-47D breast
SF-268 CNS = system: SF-268 CNS
RPMI-8226 leukemia = system: RPMI-8226 leukemia
HOP-92 NSCLC = system: HOP-92 NSCLC
MDA-MB-468 breast = system: MDA-MB-468 breast
HS 578T breast = system: HS 578T breast
SK-MEL-2 melanoma = system: SK-MEL-2 melanoma
CCRF-CEM leukemia = system: CCRF-CEM leukemia
OVCAR-5 ovarian = system: OVCAR-5 ovarian
TK-10 renal = system: TK-10 renal
HOP-62 NSCLC = system: HOP-62 NSCLC
MALME-3M melanoma = system: MALME-3M melanoma
UACC-257 melanoma = system: UACC-257 melanoma
NCI/ADR-RES ovarian = system: NCI/ADR-RES ovarian
BT-549 breast = system: BT-549 breast
IGROV1 ovarian = system: IGROV1 ovarian
NCI-H322M lung = system: NCI-H322M lung
SW-620 colon = system: SW-620 colon
OVCAR-8 ovarian = system: OVCAR-8 ovarian
U251 glioblastoma = system: U251 glioblastoma
M14 melanoma = system: M14 melanoma

## CC(C)C[C@H](NC(=O)[C@H](Cc1ccccc1)NC(=O)c1cnccn1)B(O)O
K-562 leukemia
  GI50: < 10 nM
  TGI: < 10 nM
786-0 renal
  GI50: < 10 nM
  TGI: < 11.3 nM
RXF 393 renal
  GI50: < 10 nM
  TGI: < 10 nM
UACC-62 melanoma
  GI50: < 10 nM
  TGI: < 10 nM
NCI-H226 lung
  GI50: < 10 nM
  TGI: < 10 nM
NCI-H522 lung
  GI50: < 10 nM
  TGI: < 10 nM
LOX IMVI melanoma
  GI50: < 10 nM
  TGI: 15.9 nM
SK-MEL-5 melanoma
  GI50: < 10 nM
  TGI: < 10 nM
UO-31 renal
  GI50: < 10 nM
  TGI: < 10 nM
SNB-19 CNS
  GI50: < 10 nM
  TGI: < 15.8 nM
HT29 colon
  GI50: < 10 nM
  TGI: < 10 nM
SN12C renal
  GI50: < 10.8 nM
  TGI: 18.9 nM
MCF7 breast
  GI50: < 10 nM
  TGI: 13.9 nM
DU-145 prostate
  GI50: < 10 nM
  TGI: < 13.8 nM
HCT-15 colon
  GI50: < 10 nM
  TGI: < 13.6 nM
MOLT-4 leukemia
  GI50: < 10 nM
  TGI: < 10 nM
SK-OV-3 ovarian
  GI50: < 10 nM
  TGI: 30.3 nM
KM12 colon
  GI50: < 10 nM
  TGI: < 12.9 nM
SK-MEL-28 melanoma
  GI50: < 10 nM
  TGI: < 10 nM
SF-295 CNS
  GI50: < 10 nM
  TGI: < 10 nM
CAKI-1 renal
  GI50: < 10 nM
  TGI: < 12 nM
HCT-116 colon
  GI50: < 10 nM
  TGI: < 10 nM
MDA-MB-231 breast
  GI50: < 10 nM
  TGI: < 10 nM
SF-539 CNS
  GI50: < 10 nM
  TGI: < 10 nM
A549 NSCLC
  GI50: < 10 nM
  TGI: 62 nM
A498 renal
  GI50: < 10 nM
  TGI: < 12.4 nM
T-47D breast
  GI50: < 10 nM
  TGI: < 10 nM
SF-268 CNS
  GI50: < 10 nM
  TGI: < 10 nM
RPMI-8226 leukemia
  GI50: < 10 nM
  TGI: < 10 nM
HOP-92 NSCLC
  GI50: < 10 nM
  TGI: < 10 nM
MDA-MB-468 breast
  GI50: < 10 nM
  TGI: < 10 nM
HS 578T breast
  GI50: < 10 nM
  TGI: < 10 nM
SK-MEL-2 melanoma
  GI50: < 10 nM
  TGI: < 10 nM
CCRF-CEM leukemia
  GI50: < 10 nM
  TGI: < 10 nM
OVCAR-5 ovarian
  GI50: < 10 nM
  TGI: < 16.3 nM
TK-10 renal
  GI50: < 10 nM
  TGI: < 10 nM
HOP-62 NSCLC
  GI50: < 10 nM
  TGI: < 12.5 nM
MALME-3M melanoma
  GI50: < 10 nM
  TGI: < 10 nM
UACC-257 melanoma
  GI50: < 10 nM
  TGI: < 10 nM
NCI/ADR-RES ovarian
  GI50: 32.1 nM
  TGI: 92.6 nM
BT-549 breast
  GI50: < 10 nM
  TGI: < 10 nM
IGROV1 ovarian
  GI50: < 11 nM
  TGI: < 16 nM
NCI-H322M lung
  GI50: 17.7 nM
  TGI: 91.8 nM
SW-620 colon
  GI50: < 10 nM
  TGI: < 10 nM
OVCAR-8 ovarian
  GI50: < 11.1 nM
  TGI: < 15.8 nM
U251 glioblastoma
  GI50: < 11.1 nM
  TGI: 18.9 nM
M14 melanoma
  GI50: < 10 nM
  TGI: < 10 nM
